Experiments:
[1] = test system: isolated rat pulmonary vessels; experiment: Relaxation of isolated small pulmonary arteries precontracted with norepinephrine (organ bath / vessel myograph); design: species or system rat (male Wistar); details: comparison of vardenafil, sildenafil and tadalafil
conscious Beagle dogs = experiment: Measurement of Pulmonary Artery Pressure in conscious telemetric Beagle dogs; assay type: in vivo, dog (male Beagle); details: for lowering of pulmonary artery pressure (in words): conscious dogs; for reduction of U44096-induced PH (pulmonary artery pressure): conscious Beagle dogs, significant

CCCc1nc(C)c2c(=O)[nH]c(-c3cc(S(=O)(=O)N4CCN(CC)CC4)ccc3OCC)nn12 [Vardenafil, vardenafil]
relaxation of rat pulmonary vessels (ranking of PDE5 inhibitors) [1]: most prominent | relaxation of rat pulmonary vessels (ranking of PDE5 inhibitors) ([1]; listed as vardenafil): relaxed pulmonary vessels of rat more potently then the PDE5 inhibitors sildenafil and tadalafil | decrease of pulmonary artery pressure, inhaled vs oral (in words) (conscious Beagle dogs; inhalation compared with oral application, conscious dogs with telemetric implant): more potently decreased pulmonary artery pressure then Vardenafil applied orally | lowering of pulmonary artery pressure (in words) (conscious Beagle dogs; inhalation, 30μg/kg, compared with 10-fold higher oral dose): could lower pulmonary artery pressure as significantly as with the 10-fold higher oral dose | reduction of U44096-induced PH (pulmonary artery pressure) (conscious Beagle dogs; inhaled, 30μg/kg nebulized within 10 minutes): 30% | duration of the decrease of the pulmonary artery pressure (conscious Beagle dogs; inhaled, 30μg/kg/10 min, whole observation period 3 hours): ≥ 3 h | reduction of U44096-induced PH (pulmonary artery pressure) (conscious Beagle dogs; oral, 300μg/kg): 30% | lowering of pulmonary artery pressure (in words) (conscious Beagle dogs; oral, 300μg/kg): significantly lowered pulmonary artery pressure
